{
  "source": "patent US20230012570A1",
  "about": "“BICYCLIC COMPOUND USED AS SELECTIVE ANDROGEN RECEPTOR MODULATOR” (MEDSHINE DISCOVERY INC., priority 2019, published 2023)",
  "assay_type_in_all_cases": "in vitro ADME",
  "key": {"[1]": {"target": "T1, CYP3A4 (Homo sapiens, UniProt P08684)", "T1 construct": "Mixed human liver microsomes (HLM) were purchased from Corning Inc; tissue Corning Inc. or XenoTech, LLC. or other suppliers; host or cells: pooled human liver microsomes", "T1 sequence (P08684 whole entry)": "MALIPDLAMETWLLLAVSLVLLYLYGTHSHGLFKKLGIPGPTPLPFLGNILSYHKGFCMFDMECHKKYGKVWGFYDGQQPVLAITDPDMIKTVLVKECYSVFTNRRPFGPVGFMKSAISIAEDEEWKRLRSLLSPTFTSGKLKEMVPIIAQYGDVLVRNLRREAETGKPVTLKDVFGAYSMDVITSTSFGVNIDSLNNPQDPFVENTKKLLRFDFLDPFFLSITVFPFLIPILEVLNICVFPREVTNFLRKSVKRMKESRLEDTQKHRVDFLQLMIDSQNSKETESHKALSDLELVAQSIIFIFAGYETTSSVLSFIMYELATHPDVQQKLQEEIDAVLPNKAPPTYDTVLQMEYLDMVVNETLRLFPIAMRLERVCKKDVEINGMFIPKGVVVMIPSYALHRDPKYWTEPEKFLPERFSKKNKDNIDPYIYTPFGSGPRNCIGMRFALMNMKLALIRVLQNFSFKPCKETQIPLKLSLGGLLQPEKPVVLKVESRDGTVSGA", "assay": "Human liver microsomal CYP inhibition experiment, CYP3A4", "description": "(§1) Experiment Embodiment 4: Human Liver Microsomal CYP Inhibition Experiment\n(§2) The inhibitory effects of the test compound 3A and VK5211 on the activities of human liver microsomal cytochrome P450 isozymes (CYP1A2, CYP2C9, CYP2C19, CYP2D6 and CYP3A4) were determined.\n(§3) Mixed human liver microsomes (HLM) were purchased from Corning Inc. (Steuben, New York, USA) or XenoTech, LLC. (Lenexa, Kans., USA) or other suppliers, and were stored at a temperature below −60° C. before use.\n(§4) First, the test compound (10.0 mM) was gradient diluted to prepare working solution (100×final concentration), and the concentrations of the working solution were: 5.00, 1.50, 0.500, 0.150, 0.0500, 0.0150, 0.00500 mM, and a working solution of each positive inhibitor of P450 isozymes (CYP1A2, CYP2C9, CYP2C19, CYP2D6, and CYP3A4) and a specific substrate mixture thereof (5 in 1) were prepared at the same time; human liver microsomes stored in a refrigerator at a temperature lower than −60° C. were put on ice to thaw, and when all the human liver microsomes were dissolved, the microsomes were diluted with potassium phosphate buffer (PB) to prepare a working solution of a certain concentration (0.253 mg/mL). […] The concentration of metabolites produced by the probe substrate in the sample was determined by liquid chromatography-tandem mass spectrometry (LC-MS/MS) method. […]"}, "[2]": {"target": "T2, CYP2C19 (Homo sapiens, UniProt P33261)", "T2 construct": "Mixed human liver microsomes (HLM) were purchased from Corning Inc; tissue Corning Inc. or XenoTech, LLC. or other suppliers; host or cells: pooled human liver microsomes", "T2 sequence (P33261 whole entry)": "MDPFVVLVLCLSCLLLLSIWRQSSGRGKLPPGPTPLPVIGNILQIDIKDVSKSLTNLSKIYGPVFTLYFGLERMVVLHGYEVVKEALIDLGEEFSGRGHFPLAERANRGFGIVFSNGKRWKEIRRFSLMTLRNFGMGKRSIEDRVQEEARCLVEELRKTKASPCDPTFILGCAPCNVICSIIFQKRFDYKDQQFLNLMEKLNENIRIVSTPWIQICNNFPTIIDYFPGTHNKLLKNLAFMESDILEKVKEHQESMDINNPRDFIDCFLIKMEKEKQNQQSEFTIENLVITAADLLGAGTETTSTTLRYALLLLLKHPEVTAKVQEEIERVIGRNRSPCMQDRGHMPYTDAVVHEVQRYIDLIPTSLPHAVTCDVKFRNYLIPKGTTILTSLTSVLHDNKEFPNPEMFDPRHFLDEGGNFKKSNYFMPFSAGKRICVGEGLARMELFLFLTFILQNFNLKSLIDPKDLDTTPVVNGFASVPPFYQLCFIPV", "assay": "Human liver microsomal CYP inhibition experiment, CYP2C19", "description": "as §1, §2, §3, §4"}, "[3]": {"target": "T3, CYP2C9 (Homo sapiens, UniProt P11712)", "T3 construct": "Mixed human liver microsomes (HLM) were purchased from Corning Inc; tissue Corning Inc. or XenoTech, LLC. or other suppliers; host or cells: pooled human liver microsomes", "T3 sequence (P11712 whole entry)": "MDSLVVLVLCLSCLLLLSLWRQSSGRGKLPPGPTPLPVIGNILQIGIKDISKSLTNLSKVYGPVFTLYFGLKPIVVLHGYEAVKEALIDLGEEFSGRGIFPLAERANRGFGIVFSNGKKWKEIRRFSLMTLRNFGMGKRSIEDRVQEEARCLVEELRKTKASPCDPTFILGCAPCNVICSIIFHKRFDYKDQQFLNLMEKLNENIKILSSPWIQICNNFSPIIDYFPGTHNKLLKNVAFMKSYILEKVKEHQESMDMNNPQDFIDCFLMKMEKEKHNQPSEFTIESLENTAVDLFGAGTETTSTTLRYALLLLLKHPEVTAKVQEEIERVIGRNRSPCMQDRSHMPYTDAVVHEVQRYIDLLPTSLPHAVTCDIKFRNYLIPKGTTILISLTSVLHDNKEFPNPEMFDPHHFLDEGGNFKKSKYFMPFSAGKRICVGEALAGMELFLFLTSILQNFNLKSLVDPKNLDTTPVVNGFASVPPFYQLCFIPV", "assay": "Human liver microsomal CYP inhibition experiment, CYP2C9", "description": "as §1, §2, §3, §4"}, "[4]": {"target": "T4, CYP1A2 (Homo sapiens, UniProt P05177)", "T4 construct": "Mixed human liver microsomes (HLM) were purchased from Corning Inc; tissue Corning Inc. or XenoTech, LLC. or other suppliers; host or cells: pooled human liver microsomes", "T4 sequence (P05177 1-516)": "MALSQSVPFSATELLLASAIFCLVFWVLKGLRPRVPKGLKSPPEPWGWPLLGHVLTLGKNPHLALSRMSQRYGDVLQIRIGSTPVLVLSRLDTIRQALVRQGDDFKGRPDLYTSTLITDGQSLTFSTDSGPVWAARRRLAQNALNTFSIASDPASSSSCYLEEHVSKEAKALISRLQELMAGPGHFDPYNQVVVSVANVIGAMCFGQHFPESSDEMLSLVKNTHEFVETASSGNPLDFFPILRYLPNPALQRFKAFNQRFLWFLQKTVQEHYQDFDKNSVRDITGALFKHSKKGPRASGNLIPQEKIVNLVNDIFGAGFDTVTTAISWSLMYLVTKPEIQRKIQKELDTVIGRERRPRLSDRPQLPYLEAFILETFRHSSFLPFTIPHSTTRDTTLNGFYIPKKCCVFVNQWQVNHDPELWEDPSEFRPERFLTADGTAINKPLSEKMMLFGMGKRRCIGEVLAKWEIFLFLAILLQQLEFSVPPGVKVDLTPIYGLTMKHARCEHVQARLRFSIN", "assay": "Human liver microsomal CYP inhibition experiment, CYP1A2", "description": "as §1, §2, §3, §4"}},
  "data": [
    {"smiles": "N#Cc1ccc(N2CC3CC3C2C(O)C(F)(F)F)cc1Cl", "note": "(single isomer, unassigned) [Compound 3A]", "values": [
      {"measurement": "IC50", "setting": "[1]", "result": "> 50", "unit": "µM"},
      {"measurement": "IC50", "setting": "[2]", "result": 12.1, "unit": "µM"},
      {"measurement": "IC50", "setting": "[3]", "result": "> 50", "unit": "µM"},
      {"measurement": "IC50", "setting": "[4]", "result": 29.3, "unit": "µM"}
    ]}
  ]
}
